Reference: patent US20160326540A1, “Methods and Compositions Employing a Sulfonylurea-Dependent Stabilization Domain” (PIONEER HI-BRED INTERNATIONAL, INC., priority 2013, published 2016)

How the values were obtained:
S. cereviseae BY4742 [1] = test: GFP destabilization/re-stabilization assay of TetR::AcGFP fusions in yeast liquid culture +/- atc; type: cell-based, Saccharomyces cereviseae; details: TetR::AcGFP fusion, galactose induced, 6 hrs growth, FIG. 3
Text: The third mutation, 122D (Reichheld and Davidson 2006), is a constitutive mutation in the presence or absence of ligand. Both L17G and I22D lie in the DNA binding domain (DBD) whereas G96R is in alpha helix 6 within the ligand binding domain (LBD). To test the effect of these mutations for ligand gated stability a GFP destabilization/re-stabilization assay (FIG. 1) was created. To do this a fusion between the coding regions of TetR B (Wray et al. 1981) and AcGFP (Gurskaya et al. 2003) by PCR amplifying the TetR region from plasmid pVER7568 using primers REPS' and TetR::AcGFP Rev and the AcGFP coding region from plasmid pHD1010 with primers TetR::AcGFP For and AcGFP3′ (Table 2) was created. The PCR products were then combined and subjected to overlap extension PCR using primers REPS' and AcGFP3′. The resulting full length PCR fusion product was then cloned into the Galactose inducible yeast expression vector p415GAL (ATCC#87330) as an XbaI/HindIII fragment. […] 100 ul aliquots of resuspended cells were placed into clear bottom black 96-well plates and their fluorescence determined with a Typhoon Laser Image Scanner (GE: […]). […]

S. cereviseae BY4742 [2] = test: GFP fluorescence of wt and L17G repressor::GFP fusions in yeast on agar +/- atc, ethametsulfuron or chlorsulfuron, incl. dose response; type: cell-based, Saccharomyces cereviseae; details: 5-10 uM atc, destabilized (L17G) fusion, FIG. 7
Text: Next, we wanted to determine if a similar ligand enhanced protein accumulation effect would translate to our SU repressor backbones. […] Given the number of changes to the parent sequence and the 100% change in ligand preference it was not clear if they would behave in a similar manner. […] This was done by PCR amplifying the above coding regions with primers REPS' and EsR(L3-23) Rev, EsR(L15-20) Rev, or CsR(L4-20) Rev (Table 2), digesting each PCR product with StuI/BamHI and cloning each product into StuI/BamHI digested backbone fragments of pHD1184 and pHD2012 to give both wt and L17G mutant DNA binding domain combinations, respectively for most of the SuR's (schematic in FIG. 4). The resulting vectors (Table 4) were then transformed into S. cereviseae BY4742 as for pHD1184 (above). Each strain was then grown overnight in YPD medium and the cultures arrayed in 96-well format such that there were four repeats of every strain per plate. The array was then stamped onto 40 ml DOBA agar supplemented with 2% galactose, 0.025% casamino acids, and either 10 uM atc, ethametsulfuron, chlorsulfuron or no addition as the control. The plates were grown two days at 30° C. and imaged using a Typhoon laser scanning imager (GE) with excitation and emission set at 488 and 520 nm respectively. […]

Substance | accumulation of GFP compared to wt TetR (S. cereviseae BY4742 [1]) | GFP response to ligand (dose response) (S. cereviseae BY4742 [2])
TetR(G96R) | significant negative impact | 
TetR(L17G) | significant negative impact | ~10 ×
